The results in this text go back to PubChem BioAssay AID1347054 (Pharmacoinformatics Research Group Wien, 2019).

The target in the assay is Broad substrate specificity ATP-binding cassette transporter ABCG2 (Homo sapiens) (UniProt Q9UNQ0). As to the kind of experiment: BCRP efflux transporter inhibitors, PLB985 cells, flow cytometry (AID 1347054). Conditions: mitoxantrone accumulation, at 10 µM, stronger effect = higher value. For orientation: Flow cytometry measures light scatter and fluorescence of single cells or particles in a stream.
Broad substrate specificity ATP-binding cassette transporter ABCG2 (Homo sapiens), sequence (Q9UNQ0 whole entry, looked up): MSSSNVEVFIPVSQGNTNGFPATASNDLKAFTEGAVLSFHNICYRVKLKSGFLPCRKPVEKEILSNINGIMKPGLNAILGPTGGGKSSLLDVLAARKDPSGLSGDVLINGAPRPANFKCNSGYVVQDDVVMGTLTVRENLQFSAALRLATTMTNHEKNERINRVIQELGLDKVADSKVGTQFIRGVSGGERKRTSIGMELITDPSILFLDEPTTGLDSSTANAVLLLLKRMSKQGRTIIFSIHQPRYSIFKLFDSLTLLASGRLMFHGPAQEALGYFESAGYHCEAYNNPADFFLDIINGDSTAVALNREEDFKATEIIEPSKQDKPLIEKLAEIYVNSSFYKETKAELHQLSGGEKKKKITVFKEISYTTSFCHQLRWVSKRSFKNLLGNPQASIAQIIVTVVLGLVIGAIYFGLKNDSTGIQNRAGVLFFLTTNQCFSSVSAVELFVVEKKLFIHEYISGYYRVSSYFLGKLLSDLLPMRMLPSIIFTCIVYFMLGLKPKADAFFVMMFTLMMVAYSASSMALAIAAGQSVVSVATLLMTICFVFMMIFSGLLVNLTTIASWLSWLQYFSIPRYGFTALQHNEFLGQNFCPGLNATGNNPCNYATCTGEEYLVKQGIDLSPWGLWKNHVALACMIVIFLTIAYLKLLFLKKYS

Active and inactive are the calls of the source.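 The calls were made as follows: active = clear block of the BCRP drug efflux pump at 10 µM versus solvent-only wells, p under 0.05; inactive = the rest.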

As to `CN(Cc1ccc(C(C)(C)C)cc1)Cc1cccc2ccccc12`, the inhibition was 10.8% (inactive).

`COc1cc(N)c(Cl)cc1C(=O)N[C@@H]1CCN(CCCOc2ccc(F)cc2)C[C@@H]1OC`: the inhibition is 83.8%. In the case of `COc1ccc(C(=O)Nc2ccccc2CCC2CCCCN2C)cc1` (stereo unspecified), the inhibition is 13.3% (inactive). Consider `C=C1CC[C@H](O)C/C1=C/C=C1\CCC[C@]2(C)[C@@H]([C@H](C)CCCC(C)C)CC[C@@H]12`, for which the inhibition was 1.28% (inactive). `CCCCN(CCCC)CCC(O)c1cc2c(Cl)cc(Cl)cc2c2cc(C(F)(F)F)ccc12` (stereo unspecified): the inhibition is -9.66% (inactive). Take `O=C(Nc1c(Cl)cncc1Cl)c1ccc(OC(F)F)c(OCC2CC2)c1`: the inhibition is 61.7%.

Regarding `C[C@]12CCC(=O)C=C1[C@@H]1C[C@@H]1[C@H]1[C@@H]3[C@@H]4C[C@@H]4[C@@]4(CCC(=O)O4)[C@@]3(C)CC[C@@H]12`, the inhibition was 14.4% (inactive). Consider `CN(C/C=C/C#CC(C)(C)C)Cc1cccc2ccccc12`, for which the inhibition was 9.86% (inactive). `COc1cc(NS(C)(=O)=O)ccc1Nc1c2ccccc2nc2ccccc12`: the inhibition was 13.7% (inactive). Next, `COc1ccc2c(c1)C13CCCC[C@@H]1C(C2)N(C)CC3` (stereo partly specified): -6.11% (inactive); `CS(C)=O`: 0% (inactive).

The inhibition is the drop in the measured response relative to a control, in per cent.
